Assay results published in PubChem BioAssay (NCI).
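Test compounds were applied to cells in 96-well plates for 48 hours at 5 doses. GI50 marks 50% less growth. At the TGI there is no net growth.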

Tests used:
Assay in all cases: inhibition of tumour cell growth, NCI panel, 48 h
[1] = test system: MDA-MB-468 breast
[2] = test system: 786-0 renal
[3] = test system: A498 renal
[4] = test system: A549 NSCLC
[5] = test system: ACHN renal
[6] = test system: BT-549 breast
[7] = test system: CAKI-1 renal
[8] = test system: CCRF-CEM leukemia
[9] = test system: COLO 205 colon
[10] = test system: DU-145 prostate
[11] = test system: EKVX NSCLC
[12] = test system: HCC-2998 colon
[13] = test system: HCT-116 colon
[14] = test system: HCT-15 colon
[15] = test system: HL-60(TB) leukemia
[16] = test system: HOP-62 NSCLC
[17] = test system: HOP-92 NSCLC
[18] = test system: HS 578T breast
[19] = test system: HT29 colon
[20] = test system: IGROV1 ovarian
[21] = test system: K-562 leukemia
[22] = test system: KM12 colon
[23] = test system: LOX IMVI melanoma
[24] = test system: M14 melanoma
[25] = test system: MALME-3M melanoma
[26] = test system: MCF7 breast
[27] = test system: MDA-MB-435
[28] = test system: MOLT-4 leukemia
[29] = test system: NCI-H226 lung
[30] = test system: NCI-H23 lung
[31] = test system: NCI-H460 lung
[32] = test system: NCI-H522 lung
[33] = test system: NCI/ADR-RES ovarian
[34] = test system: OVCAR-3 ovarian
[35] = test system: OVCAR-4 ovarian
[36] = test system: OVCAR-5 ovarian
[37] = test system: OVCAR-8 ovarian
[38] = test system: PC-3 prostate
[39] = test system: RPMI-8226 leukemia
[40] = test system: RXF 393 renal
[41] = test system: SF-268 CNS
[42] = test system: SF-295 CNS
[43] = test system: SF-539 CNS
[44] = test system: SK-MEL-28 melanoma
[45] = test system: SK-MEL-5 melanoma
[46] = test system: SK-OV-3 ovarian
[47] = test system: SN12C renal
[48] = test system: SNB-19 CNS
[49] = test system: SR leukemia
[50] = test system: SW-620 colon
[51] = test system: T-47D breast
[52] = test system: TK-10 renal
[53] = test system: U251 CNS
[54] = test system: UACC-257 melanoma
[55] = test system: UACC-62 melanoma

SMILES: CCN(Cc1ccccc1)c1ccc(CO)c(Cl)c1
- GI50 [1]: 0.0202 µM
- TGI [1]: 0.0559 µM

SMILES: N#CC1=C(N)Oc2c(ccc3ccccc23)C1c1ccccc1 (configuration not stated)
- GI50 [1]: 0.0751 µM
- TGI [1]: 1.79 µM

SMILES: COc1cc(-c2ccc(-c3ccc(C(=N)N)nc3)s2)cc(OC)c1OC
- GI50 [1]: 1.74 µM
- TGI [1]: 4.41 µM

SMILES: COc1cc2ncn(-c3cc(O[C@@H](C)c4ccccc4Cl)c(C(N)=O)s3)c2cc1OC
- GI50 [1]: 0.12 µM
- TGI [1]: 1.61 µM

SMILES: CC(C)C[C@H](NC(=O)Cn1ccc(NCc2ccccc2)cc1=O)B(O)O
- GI50 [1]: 0.37 µM
- TGI [1]: 1.78 µM

SMILES: C=C(NC(=O)C(=C)NC(=O)c1csc(C2=NC3c4csc(n4)C4NC(=O)c5csc(n5)C(C(C)(O)C(C)O)NC(=O)C5CSC(=N5)C(=CC)NC(=O)C(C(C)O)NC(=O)c5csc(n5)C3(CC2)NC(=O)C(C)NC(=O)C(=C)NC(=O)C(C)NC(=O)C(C(C)CC)NC2C=Cc3c(C(C)O)cc(nc3C2O)C(=O)OC4C)n1)C(N)=O (configuration not stated)
- GI50 [1]: 1.58 µM
- TGI [1]: 3.63 µM

SMILES: COc1cccc(/C=C/[N+](=O)[O-])c1
- GI50 [1]: 2.3 µM
- TGI [1]: 5.21 µM

SMILES: O=S(=O)(NCCCNc1nccc(-c2c(-c3ccc(F)c(O)c3)nc3sccn23)n1)c1ccc(F)cc1
- GI50 [1]: 2.62 µM
- TGI [1]: 7.35 µM

SMILES: C/C(=N\Nc1cc(C)c2ccccc2n1)c1ccccn1
- GI50 [1]: 0.0662 µM
- TGI [1]: 0.749 µM

SMILES: C[C@@H](O)[C@H](NC(=O)N[C@@H](CC(N)=O)c1nc([C@@H](N)CO)no1)C(=O)O
- GI50 [1]: > 100 µM
- TGI [1]: > 100 µM

SMILES: CS(=O)(=O)CCNCc1ccc(-c2ccc3ncnc(Nc4ccc(OCc5ccccc5)c(Br)c4)c3c2)o1
- GI50 [1]: 0.082 µM
- TGI [1]: 1 µM

SMILES: O=C1NC(=O)C(c2ccccc2Cl)=C1Nc1cc(Cl)c(O)c(Cl)c1
- GI50 [1]: 6.29 µM
- TGI [1]: > 21.4 µM

SMILES: C=CCn1c(SCC(=O)Nc2ccc(C(=O)/C=C/c3cc(OC)c(OC)c(OC)c3)cc2)nnc1-c1c[nH]c2ccccc12
- GI50 [1]: 1.77 µM
- TGI [1]: 4.21 µM

SMILES: C=C1C(=O)O[C@H]2[C@H]1CC/C(COC(=O)c1cc3ccccc3o1)=C\CC[C@@]1(C)O[C@@H]21
- GI50 [1]: 1.5 µM
- TGI [1]: 3.72 µM

SMILES: COc1cc(N2CCC(N3CCN(C)CC3)CC2)ccc1Nc1ncnc(Nc2ccccc2S(=O)(=O)C(C)C)n1
- GI50 [1]: 4.78 µM
- TGI [1]: 20.3 µM

SMILES: O=C(O)c1ccc(Oc2nccc(-c3c(-c4ccc(F)cc4)ncn3C3CCNCC3)n2)cc1
- GI50 [1]: > 25 µM
- TGI [1]: > 25 µM

SMILES: COc1ccc(NC([Se])=NC23CC4CC(CC(C4)C2)C3)cc1
- GI50 [1]: 1.35 µM
- TGI [1]: 3.42 µM

SMILES: C=C1C(=O)O[C@H]2[C@H]1CC/C(COC(=O)C(=O)c1cn(C)c3ccc(Cl)cc13)=C\CC[C@@]1(C)O[C@@H]21
- GI50 [1]: 0.248 µM
- TGI [1]: 0.637 µM

SMILES: O=C1CC(=O)N(C(=O)c2nn(-c3ccc(Cl)cc3)cc2O)N1
- GI50 [1]: 0.716 µM
- TGI [1]: > 66.5 µM

SMILES: CC(=O)N1C/C(=C/c2ccc(Cl)cc2)C(=O)/C(=C/c2ccc(Cl)cc2)C1
- GI50 [1]: 0.469 µM
- TGI [1]: 1.76 µM

SMILES: Cc1c2c(cc[n+]1Cc1ccccc1)c1ccc(OCc3ccccc3)cc1n2Cc1ccccc1
- GI50 [1]: 0.191 µM
- TGI [1]: 0.915 µM

SMILES: COc1ccc(-c2cc(-c3ccc(Cl)cc3)nc(SCCCC(=O)NO)n2)cc1
- GI50 [1]: 1.49 µM
- TGI [1]: 4.34 µM

SMILES: CNC(=O)c1ccc(N2C(=S)N(c3ccc(C#N)c(C(F)(F)F)c3)C(=O)C2(C)C)cc1F
- GI50 [1]: 17.1 µM
- TGI [1]: > 75.7 µM

SMILES: Cc1ccc(Cc2cnc(NC(=O)/C=C/c3cccc(C)c3)s2)cc1
- GI50 [1]: 0.309 µM

SMILES: CCOC(=O)NC1C2CC(=O)OC(O2)C1OC(C)=O (configuration not stated)
- GI50 [1]: > 100 µM
- TGI [1]: > 100 µM

SMILES: NCCCCn1c(SCCc2c[nH]c3ccccc23)nnc1-c1ccc2ccccc2n1
- GI50 [2]: 5.9 µM
- TGI [2]: 10.9 µM
- GI50 [3]: 6.06 µM
- TGI [3]: 11.2 µM
- GI50 [4]: 5.1 µM
- TGI [4]: 9.87 µM
- GI50 [5]: 5.42 µM
- TGI [5]: 10.3 µM
- GI50 [6]: 5.67 µM
- TGI [6]: 10.7 µM
- GI50 [7]: 5.74 µM
- TGI [7]: 11.9 µM
- GI50 [8]: 7.21 µM
- TGI [8]: 20.3 µM
- GI50 [9]: 4.54 µM
- TGI [9]: 9.3 µM
- GI50 [10]: 6.51 µM
- TGI [10]: 12.2 µM
- GI50 [11]: 5.32 µM
- TGI [11]: 10.6 µM
- GI50 [12]: 6.01 µM
- TGI [12]: 10.9 µM
- GI50 [13]: 4.74 µM
- TGI [13]: 9.31 µM
- GI50 [14]: 6.26 µM
- TGI [14]: 11.5 µM
- GI50 [15]: 4.99 µM
- TGI [15]: 11.4 µM
- GI50 [16]: 5.35 µM
- TGI [16]: 10.5 µM
- GI50 [17]: 4.59 µM
- TGI [17]: 10.5 µM
- GI50 [18]: 5.6 µM
- TGI [18]: 14.6 µM
- GI50 [19]: 5.28 µM
- TGI [19]: 10.4 µM
- GI50 [20]: 5.84 µM
- TGI [20]: 11.1 µM
- GI50 [21]: 5.58 µM
- TGI [21]: 13.2 µM
- GI50 [22]: 6.54 µM
- TGI [22]: 12.3 µM
- GI50 [23]: 5.28 µM
- TGI [23]: 10 µM
- GI50 [24]: 5.48 µM
- TGI [24]: 10.4 µM
- GI50 [25]: 5.35 µM
- TGI [25]: 10.3 µM
- GI50 [26]: 5.38 µM
- TGI [26]: 10.4 µM
- GI50 [27]: 6.27 µM
- TGI [27]: 11.8 µM
- GI50 [1]: 4.94 µM
- TGI [1]: 9.58 µM
- GI50 [28]: 5.47 µM
- TGI [28]: 13.1 µM
- GI50 [29]: 5.29 µM
- TGI [29]: 10.8 µM
- GI50 [30]: 5.57 µM
- TGI [30]: 10.5 µM
- GI50 [31]: 6.17 µM
- TGI [31]: 11.7 µM
- GI50 [32]: 5.35 µM
- TGI [32]: 10.4 µM
- GI50 [33]: 6.29 µM
- TGI [33]: 13.4 µM
- GI50 [34]: 5.16 µM
- TGI [34]: 10.2 µM
- GI50 [35]: 5.75 µM
- TGI [35]: 12 µM
- GI50 [36]: 5.66 µM
- TGI [36]: 10.8 µM
- GI50 [37]: 5.63 µM
- TGI [37]: 10.8 µM
- GI50 [38]: 5.35 µM
- TGI [38]: 11.6 µM
- GI50 [39]: 5.41 µM
- TGI [39]: 13.9 µM
- GI50 [40]: 4.8 µM
- TGI [40]: 9.4 µM
- GI50 [41]: 5.69 µM
- TGI [41]: 12.1 µM
- GI50 [42]: 5.65 µM
- TGI [42]: 10.7 µM
- GI50 [43]: 5.85 µM
- TGI [43]: 10.6 µM
- GI50 [44]: 5.94 µM
- TGI [44]: 10.8 µM
- GI50 [45]: 5.84 µM
- TGI [45]: 10.6 µM
- GI50 [46]: 5.69 µM
- TGI [46]: 11.2 µM
- GI50 [47]: 5.6 µM
- TGI [47]: 10.5 µM
- GI50 [48]: 6.3 µM
- TGI [48]: 12.8 µM
- GI50 [49]: 5.88 µM
- TGI [49]: 12.7 µM
- GI50 [50]: 5.51 µM
- TGI [50]: 11.1 µM
- GI50 [51]: 6.08 µM
- TGI [51]: 14.6 µM
- GI50 [52]: 5.91 µM
- TGI [52]: 10.9 µM
- GI50 [53]: 5.36 µM
- TGI [53]: 10.2 µM
- GI50 [54]: 5.78 µM
- TGI [54]: 11 µM
- GI50 [55]: 5.46 µM
- TGI [55]: 10.2 µM

SMILES: NC1CCC(Nc2nc(NCc3ccc(-c4ccccc4O)nc3)c3ncn(C4CCCC4)c3n2)CC1 (configuration not stated)
- GI50 [1]: < 0.01 µM
- TGI [1]: 0.0129 µM

SMILES: Cc1nc2sc(C(=O)Nc3cccc4ccccc34)c(N)c2cc1C(O)c1ccccc1 (configuration not stated)
- GI50 [1]: 0.0351 µM
- TGI [1]: 15.2 µM

SMILES: CCC(=O)Nc1ccccc1C#C/C=C\C#Cc1ccccc1SC
- GI50 [1]: 3.12 µM
- TGI [1]: > 100 µM

SMILES: Cc1ccc2c(-c3ccnc(Nc4ccccc4)n3)c(-c3ccc(F)cc3)nn2n1
- GI50 [1]: 0.961 µM
- TGI [1]: 6.35 µM

SMILES: C=C(CN1CCN(c2cccc(C(F)(F)F)n2)CC1)c1ccc(C(=O)Nc2ccccc2N)cc1
- GI50 [1]: 1.19 µM
- TGI [1]: 7.28 µM

SMILES: COc1cc2c(cc1OC)-c1ccc3cc4c(cc3c1N(CCCn1ccnc1)C2)OCO4
- GI50 [1]: 0.397 µM
- TGI [1]: 2.73 µM

SMILES: CCCN(CCC)c1ccc(/C=C/c2ccc3cc(OCC)ccc3n2)cc1
- GI50 [1]: 80.1 µM
- TGI [1]: > 100 µM

SMILES: C=C(C)[C@@H]1CC[C@]2(C(=O)O)CC[C@]3(C)[C@H](CC[C@@H]4[C@@]5(C)CCC(NC(=O)c6cccc(OC(C)=O)c6OC(C)=O)C(C)(C)[C@@H]5CC[C@]43C)[C@@H]12 (some centres not stated)
- GI50 [1]: 0.424 µM
- TGI [1]: 2.89 µM

SMILES: CC(=Nc1ccccc1)C1=C(O)C(Cc2ccc(O)cc2)NC1=O (configuration not stated)
- GI50 [1]: 0.0244 µM
- TGI [1]: 0.0874 µM
